The compounds below were run against T1, Cbl-b (Homo sapiens, UniProt Q13191) (assay: Cbl-b probe displacement HTRF binding assay). Settings: 0.4 nM biotinylated Cbl-b, 150 nM BODIPY probe.
T1 construct: biotin (biotinylated)
Experimental: The affinity with which compounds of the present dislcosure bind to Cbl-b was assessed using probe displacement homologous time resolved fluorescence (HTRF) assays. […] The assays were performed in assay buffer consisting of 20 mM Hepes, 150 mM NaCl, 0.01% Triton X-100, 0.5 mM TCEP, 0.01% BSA. On the day of the assay, a 20 point, 1:2 master serial dilution of each compound was prepared in DMSO to span a final concentration range of […] to 0 nM. Two hundred nanoliters of diluted compound was added to each well of a 384-well plate. Fifteen microliters of biotinylated-Cbl-b resuspended in assay buffer were added to each well and the plate incubated for 60 minutes at room temperature prior to addition of 5 μL of BODIPY™ probe in assay buffer. […] After a further 15 minutes of incubation at room temperature, 5 μl of Streptavidin-Terbium cryptate reagent at 5-fold final concentration was added to each well of the 384-well plate. Binding of a probe to Cbl-b results in an increase of HTRF signal. […] Percentage maximum activity in each test well was calculated based on DMSO (maximum activity, 0% displacement) and no protein control wells (baseline activity, 100% displacement). Binding affinity was determined from a dose response curve fitted using a standard four parameter fit equation.

T1 sequence (Q13191 whole entry, species assumed): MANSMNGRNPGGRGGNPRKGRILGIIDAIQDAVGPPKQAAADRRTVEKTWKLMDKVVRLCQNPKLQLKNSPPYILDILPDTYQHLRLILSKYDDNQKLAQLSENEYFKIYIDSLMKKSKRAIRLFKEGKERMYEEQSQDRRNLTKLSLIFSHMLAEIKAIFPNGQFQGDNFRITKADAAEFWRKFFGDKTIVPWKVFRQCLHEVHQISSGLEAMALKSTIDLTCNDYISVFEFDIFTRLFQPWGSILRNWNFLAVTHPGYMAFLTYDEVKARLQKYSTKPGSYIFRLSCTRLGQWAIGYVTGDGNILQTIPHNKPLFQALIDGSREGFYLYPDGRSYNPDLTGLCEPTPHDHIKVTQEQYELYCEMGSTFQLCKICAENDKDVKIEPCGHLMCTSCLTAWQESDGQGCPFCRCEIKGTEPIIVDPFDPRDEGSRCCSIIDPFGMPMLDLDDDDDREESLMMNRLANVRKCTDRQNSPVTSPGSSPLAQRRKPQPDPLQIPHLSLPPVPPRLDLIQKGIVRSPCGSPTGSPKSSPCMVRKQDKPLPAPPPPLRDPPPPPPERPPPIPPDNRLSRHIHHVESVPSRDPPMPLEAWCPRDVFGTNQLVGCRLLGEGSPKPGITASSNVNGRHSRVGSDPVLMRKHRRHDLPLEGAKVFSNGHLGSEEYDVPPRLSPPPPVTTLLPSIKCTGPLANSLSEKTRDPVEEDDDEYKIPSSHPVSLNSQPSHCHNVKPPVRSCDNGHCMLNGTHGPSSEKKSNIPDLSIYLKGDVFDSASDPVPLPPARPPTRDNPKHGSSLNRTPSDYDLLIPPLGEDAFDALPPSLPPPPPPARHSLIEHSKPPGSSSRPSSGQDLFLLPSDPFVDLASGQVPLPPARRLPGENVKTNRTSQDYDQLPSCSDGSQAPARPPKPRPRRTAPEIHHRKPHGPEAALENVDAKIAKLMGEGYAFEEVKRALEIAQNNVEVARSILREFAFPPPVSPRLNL

Structure (SMILES)	IC50 [nM]
CN1CCC(c2cc3c(C4CC4)cn(-c4cccc([C@]5(c6nncn6C)C[C@@H](C)C5)c4)c(=O)c3[nH]2)CC1 [Example 33, 4-cyclopropyl-2-(1-methylpiperidin-4-yl)-6-{3-[(1r,3s)-3-methyl-1-(4-methyl-4H-1,2,4-triazol-3-yl)cyclobutyl]phenyl}-1H,6H,7H-pyrrolo[2,3-c]pyridin-7-one]	100 to 1000
CC(Sc1nncn1C)c1cccc(-n2cc(C3CC3)c3cc(CN4CCC[C@H](C)C4)[nH]c3c2=O)c1 (stereo partly drawn) [Example 2, 4-cyclopropyl-2-[[(3S)-3-methylpiperidin-1-yl]methyl]-6-[3-[1-[(4-methyl-1,2,4-triazol-3-yl)sulfanyl]ethyl]phenyl]-1H-pyrrolo[2,3-c]pyridin-7-one]	100 to 1000
Cc1cn(-c2cccc([C@]3(c4nncn4C)C[C@@H](C)C3)c2)c(=O)c2[nH]ccc12 [Example 29, 4-methyl-6-{3-[(1r,3s)-3-methyl-1-(4-methyl-4H-1,2,4-triazol-3-yl)cyclobutyl]phenyl}-1H,6H,7H-pyrrolo[2,3-c]pyridin-7-one]	100 to 1000
CC(c1ccnc(-n2cc(C3CC3)c3cc(CN4CCC[C@H](C)C4)[nH]c3c2=O)c1)c1nncn1C (stereo partly drawn) [Example 157, 2—{[(S)-3-methyl-1-piperidyl]methyl}-4-cyclopropyl-6-{4-[1-(4-methyl-4H-1,2,4-triazol-3-yl)ethyl]-2-pyridyl}-1,6-dihydro-1,6-diaza-7-indenone]	< 100
CC1CC(c2cccc(-n3cc(C4CC4)c4cc(CN5CCC[C@H](C(F)(F)F)C5)[nH]c4c3=O)c2)(c2nncn2C)C1 (stereo partly shown) [Example 48, 4-cyclopropyl-6-{3-[3-methyl-1-(4-methyl-4H-1,2,4-triazol-3-yl)cyclobutyl]phenyl}-2-{[(3S′)-3-(trifluoromethyl)piperidin-1-yl]methyl}-1H,6H,7H-pyrrolo[2,3-c]pyridin-7-one]	< 100
CC1CC(c2cccc(-n3cc(C(F)(F)F)c4c(S(C)(=O)=O)c[nH]c4c3=O)c2)(c2nncn2C)C1 (mixture of isomers) [Example 139, 3-Methanesulfonyl-6-{3-[(1S,3R)-3-methyl-1-(4-methyl-4H-1,2,4-triazol-3-yl)cyclobutyl]phenyl}-4-(trifluoromethyl)-1H,6H,7H-pyrrolo[2,3-c]pyridin-7-one]	< 100
Cn1cnnc1C1(c2cccc(-n3cc(C4CC4)c4cc[nH]c4c3=O)c2)CC2(CC2)C1 [Example 10, 4-cyclopropyl-6-[3-[5-(4-methyl-1,2,4-triazol-3-yl)spiro[2.3]hexan-5-yl]phenyl]-1H-pyrrolo[2,3-c]pyridin-7-one]	100 to 1000
CC1CC(c2cccc(-n3nc(C4CC4)c4cc[nH]c4c3=O)c2)(c2nncn2C)C1 (stereo not shown) [Example 116, 4-cyclopropyl-6-{3-[3-methyl-1-(4-methyl-4H-1,2,4-triazol-3-yl)cyclobutyl]phenyl}-1H,6H,7H-pyrrolo[2,3-d]pyridazin-7-one]	1000 to 5000
CC(=O)c1c[nH]c2c(=O)n(-c3cccc([C@]4(c5nncn5C)C[C@H](C)C4)c3)cc(C3CC3)c12 (single isomer, unassigned) [Example 22, 3-Acetyl-4-cyclopropyl-6-{3-[(1s,3r)-3-methyl-1-(4-methyl-4H-1,2,4-triazol-3-yl)cyclobutyl]phenyl}-1H,6H,7H-pyrrolo[2,3-c]pyridin-7-one]	< 100
CC1CC(c2cccc(-n3cc(C4CC4)c4cc(-c5cnn(C)c5)[nH]c4c3=O)c2)(c2nncn2C)C1 (mixture of isomers) [Example 32, 4-cyclopropyl-6-{3-[3-methyl-1-(4-methyl-4H-1,2,4-triazol-3-yl)cyclobutyl]phenyl}-2-(1-methyl-1H-pyrazol-4-yl)-1H,6H,7H-pyrrolo[2,3-c]pyridin-7-one]	1000 to 5000
CC1CC(c2cccc(-n3cc(C4CC4)c4c(CN5CCC[C@H](C)C5)c[nH]c4c3=O)c2)(c2nncn2C)C1 (mixture of isomers) [Example 15, 4-Cyclopropyl-6-{3-[3-methyl-1-(4-methyl-4H-1,2,4-triazol-3-yl)cyclobutyl]phenyl}-3-{[(3S′)-3-methylpiperidin-1-yl]methyl}-1H,6H,7H-pyrrolo[2,3-c]pyridin-7-one]	100 to 1000
Cn1cnnc1[C@]1(c2cccc(-n3cc(C(F)(F)F)c4c(S(C)(=O)=O)c[nH]c4c3=O)c2)C[C@H](C)C1 [Example 138, 3-Methanesulfonyl-6-{3-[(1R,3S)-3-methyl-1-(4-methyl-4H-1,2,4-triazol-3-yl)cyclobutyl]phenyl}-4-(trifluoromethyl)-1H,6H,7H-pyrrolo[2,3-c]pyridin-7-one]	< 100
Cn1cnnc1[C@]1(c2cccc(-n3ccc4c(C#N)c[nH]c4c3=O)c2)C[C@@H](C)C1 (single isomer, unassigned) [Example 28, 7-Oxo-6-{3-[(1s,3r)-3-methyl-1-(4-methyl-4H-1,2,4-triazol-3-yl)cyclobutyl]phenyl}-1H,6H,7H-pyrrolo[2,3-c]pyridine-3-carbonitrile]	100 to 1000
Cn1cnnc1[C@]1(c2cccc(-n3ccc4cc[nH]c4c3=O)c2)C[C@H](C)C1 (single isomer, unassigned) [Example 30, 6-{3-[(1r,3s)-3-methyl-1-(4-methyl-4H-1,2,4-triazol-3-yl)cyclobutyl]phenyl}-1H,6H,7H-pyrrolo[2,3-c]pyridin-7-one]	1000 to 5000
CC1CC(c2cccc(-n3cc(C4CC4)c4cc(CN5CCCC6CC65)[nH]c4c3=O)c2)(c2nncn2C)C1 (stereo not shown) [Example 44, 2-({2-azabicyclo[4.1.0]heptan-2-yl}methyl)-4-cyclopropyl-6-{3-[3-methyl-1-(4-methyl-4H-1,2,4-triazol-3-yl)cyclobutyl]phenyl}-1H,6H,7H-pyrrolo[2,3-c]pyridin-7-one]	< 100
CC1CC(c2cccc(-n3cc(C4CC4)c4cc(CN5CC6CC(C5)O6)[nH]c4c3=O)c2)(c2nncn2C)C1 (stereo not shown) [Example 53, 4-cyclopropyl-6-{3-[3-methyl-1-(4-methyl-4H-1,2,4-triazol-3-yl)cyclobutyl]phenyl}-2-({6-oxa-3-azabicyclo[3.1.1]heptan-3-yl}methyl)-1H,6H,7H-pyrrolo[2,3-c]pyridin-7-one]	< 100
Cn1cnnc1C1(c2cccc(-n3cc(C4CC4)c4cc(CNC5CCC(F)(F)C5)[nH]c4c3=O)c2)CC(F)(F)C1 (stereo not shown) [Example 80, 4-cyclopropyl-6-{3-[3,3-difluoro-1-(4-methyl-4H-1,2,4-triazol-3-yl)cyclobutyl]phenyl}-2-{[(3,3-difluorocyclopentyl)amino]methyl}-1H,6H,7H-pyrrolo[2,3-c]pyridin-7-one]	< 100
Cn1cnnc1C1(c2cccc(-n3cc(C4CC4)c4cc(CNC5(C)CC(F)(F)C5)[nH]c4c3=O)c2)CC(F)(F)C1 [Example 81, 4-cyclopropyl-6-{3-[3,3-difluoro-1-(4-methyl-4H-1,2,4-triazol-3-yl)cyclobutyl]phenyl}-2-{[(3,3-difluoro-1-methylcyclobutyl)amino]methyl}-1H,6H,7H-pyrrolo[2,3-c]pyridin-7-one]	< 100
CC(O)c1c[nH]c2c(=O)n(-c3cccc([C@]4(c5nncn5C)C[C@@H](C)C4)c3)cc(C3CC3)c12 (single isomer, unassigned) [Example 23]	100 to 1000
Cn1cnnc1[C@]1(c2cccc(-n3cc(C4CC4)c4c(C(F)(F)F)c[nH]c4c3=O)c2)C[C@H](C)C1 [Example 18, 4-Cyclopropyl-6-{3-[(1r,3s)-3-methyl-1-(4-methyl-4H-1,2,4-triazol-3-yl)cyclobutyl]phenyl}-3-(trifluoromethyl)-1H,6H,7H-pyrrolo[2,3-c]pyridin-7-one]	100 to 1000
CC(O)c1c[nH]c2c(=O)n(-c3cccc([C@]4(c5nncn5C)C[C@H](C)C4)c3)cc(C3CC3)c12 (single isomer, unassigned) [Example 24]	100 to 1000
CC(=O)c1c[nH]c2c(=O)n(-c3cccc([C@]4(c5nncn5C)C[C@@H](C)C4)c3)cc(C3CC3)c12 (single isomer, unassigned) [Example 21, 3-Acetyl-4-cyclopropyl-6-{3-[(1r,3s)-3-methyl-1-(4-methyl-4H-1,2,4-triazol-3-yl)cyclobutyl]phenyl}-1H,6H,7H-pyrrolo[2,3-c]pyridin-7-one]	< 100
CC1CC(c2cccc(-n3cc(C4CC4)c4c(CO)c[nH]c4c3=O)c2)(c2nncn2C)C1 (mixture of isomers) [Example 16, 4-Cyclopropyl-3-(hydroxymethyl)-6-{3-[3-methyl-1-(4-methyl-4H-1,2,4-triazol-3-yl)cyclobutyl]phenyl}-1H,6H,7H-pyrrolo[2,3-c]pyridin-7-one]	100 to 1000
Cn1cnnc1[C@]1(c2cccc(-n3cc(C4CC4)c4c(C(=O)O)c[nH]c4c3=O)c2)C[C@H](C)C1 (single isomer, unassigned) [Example 19, 4-Cyclopropyl-7-oxo-6-{3-[(1r,3s)-3-methyl-1-(4-methyl-4H-1,2,4-triazol-3-yl)cyclobutyl]phenyl}-1H,6H,7H-pyrrolo[2,3-c]pyridine-3-carboxylic acid]	1000 to 5000
Cn1cnnc1[C@]1(c2cccc(-n3cc(C4CC4)c4c(S(C)(=O)=O)c[nH]c4c3=O)c2)C[C@@H](C)C1 (single isomer, unassigned) [Example 26, 4-Cyclopropyl-3-methanesulfonyl-6-{3-[(1s,3r)-3-methyl-1-(4-methyl-4H-1,2,4-triazol-3-yl)cyclobutyl]phenyl}-1H,6H,7H-pyrrolo[2,3-c]pyridin-7-one]	100 to 1000

From patent publication US20260028336A1 (Arcus Biosciences, Inc., priority 2022, published 2026)
